Measured values: ChEMBL document CHEMBL3734745, “Synthesis of six mexiletine derivatives with isoindolines attached as potential antioxidants and their evaluation as cardioprotective agents” (Medchemcomm, 2015)
The source made the active and inactive calls. No cut-off for these calls is given here.

Experiments:
Erythrocyte = assay: Antioxidant activity in C57Bl/6 mouse erythrocyte assessed as increase in AAPH-induced hemolysis time incubated for 30 mins by spectrophotometry; assay type: functional, cell-based
RAW264.7 [1] = assay: Cytotoxicity against mouse RAW264.7 cells assessed as cell viability at 100 uM by MTS assay; assay type: cell-based; settings: raw264.7, 100 µM
Aorta = assay: Antioxidant activity in NADPH stimulated Sprague-Dawley rat aorta assessed as reduction in photon emission at 10 uM incubated for 45 mins by lucigenin-enhanced chemiluminescence assay; assay type: functional, tissue-based
Right cardiac atrium [2] = assay: Reduction in resting atrial rate in Guinea pig right atria at 100 uM by electrogram (reference value: 175 to 200 bpm); assay type: functional, Cavia porcellus
Cavia porcellus = species on record: Cavia porcellus; assay: Effect on papillary muscle refractory period in Guinea pig at 100 uM by electrogram; assay type: functional, tissue-based
RAW264.7 [3] = assay: Antioxidant activity in phorbol 12,13-dibutyrate stimulated mouse RAW264.7 cells assessed as inhibition of ROS generation by measuring the reduction in photon emission at 100 uM incubated for 60 mins by L-012-enhanced chemiluminescence assay relative to control; assay type: functional
Rattus norvegicus = species on record: Rattus norvegicus; assay: (§1) Cardio-protective anti-ischemic activity in rat H9c2(2-1) cells assessed as reduction in cell death at 5 uM incubated for 12 hrs under hypoxic simulated ischemia by propidium iodide exclusion assay; assay type: functional
Right cardiac atrium [4] = assay: Increase in absolute refractory period in Guinea pig right atria at 100 uM incubated for 30 mins by electrogram; assay type: functional; settings: Cavia porcellus
[5] = Toxicity in rat H9c2(2-1) cells assessed as cell death at 10 uM incubated for 12 hrs under hypoxic simulated ischemia by propidium iodide exclusion assay; assay type: cell-based
[6] = as §1; assay type: functional; set-up: scale not given: the % may be the effect or the level left

Row | SMILES | Activity (Erythrocyte) | Activity (RAW264.7 [1]) | Activity (Aorta) | Activity (Right cardiac atrium [2]) | Activity (Cavia porcellus) | Activity (RAW264.7 [3]) | Activity (Rattus norvegicus) | Activity (Right cardiac atrium [4]) | Activity (Right cardiac atrium [2]; Cavia porcellus) | Activity [5] | Activity [6]
1 | CC1(C)c2ccccc2C(C)(C)N1O | inactive | Non-toxic | inactive |  |  |  |  |  |  |  | 
2 | Cc1cccc(C)c1OCC(C)N (stereo not drawn) [MEXILETINE] | inactive |  | inactive | 15 bpm | Active | inactive | inactive | Active |  |  | 
3 | Cc1cccc(C)c1OCC(C)NCc1ccc2c(c1)C(C)(C)N([O])C2(C)C (stereo not drawn) |  |  |  |  | inactive | inactive |  | Active | Active |  | 
4 | CC(COc1c(Cl)cccc1Cl)NCc1ccc2c(c1)C(C)(C)N(O)C2(C)C (stereo not drawn) |  | Non-toxic |  |  |  |  |  |  |  |  | 
5 | CC(N)COc1c(Cl)cccc1Cl (stereo not drawn) |  |  |  | 15 bpm | inactive |  |  | Active |  |  | 
6 | Cc1cccc(C)c1OCC(C)NCc1ccc2c(c1)C(C)(C)NC2(C)C (stereo not drawn) |  |  |  |  | inactive | inactive |  | Active | Active | Toxic | 55%
7 | Cc1cccc(C)c1OCC(C)NCc1ccc2c(c1)C(C)(C)N(O)C2(C)C (stereo not drawn) |  |  |  |  | inactive | inactive | Active | Active | Active | Toxic | 
8 | CC(COc1c(Cl)cccc1Cl)NCc1ccc2c(c1)C(C)(C)N([O])C2(C)C (stereo not drawn) |  | Non-toxic |  |  | inactive |  | Active | inactive | Active | Toxic | 
9 | CC(COc1c(Cl)cccc1Cl)NCc1ccc2c(c1)C(C)(C)NC2(C)C (stereo not drawn) |  | Non-toxic |  |  |  |  |  |  |  |  | 
10 | CC1(C)NC(C)(C)c2ccccc21 | inactive | Non-toxic | inactive |  |  |  |  |  |  |  | 
11 | CC1(C)c2ccccc2C(C)(C)N1[O] | inactive | Non-toxic | inactive |  |  |  |  |  |  |  | 
